From patent US9353104B2, “Substituted pyridizinone derivatives as PDE10 inhibitors” (priority 2013, dated 2016)
pKi: −log10 of the molar value.

target: human PDE10A2 (Homo sapiens (Human), UniProt Q9Y233); test: PDE10 fluorescence polarization (IMAP FP) inhibition assay; type: biochemical; settings: human PDE10A2 lysate, FAM-labeled cAMP 50 nM, room temperature; read-out: PDE10A Ki
How it was run: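 Cytoplasmic lysate of AD293 cells transiently expressing human PDE10A2, diluted for ~20% conversion of 50 nM FAM-cAMP, in 10 mM Tris pH 7.2, 10 mM MgCl2, 1 mM DTT, 0.01% Tween-20. Reaction 30 min at room temperature, read by IMAP fluorescence polarization; 10-point 3-fold titrations, 1% DMSO as 0%, reference PDE10 inhibitor at 5,000× Ki as 100%.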

Chain of human PDE10A2 (Q9Y233 267-1055): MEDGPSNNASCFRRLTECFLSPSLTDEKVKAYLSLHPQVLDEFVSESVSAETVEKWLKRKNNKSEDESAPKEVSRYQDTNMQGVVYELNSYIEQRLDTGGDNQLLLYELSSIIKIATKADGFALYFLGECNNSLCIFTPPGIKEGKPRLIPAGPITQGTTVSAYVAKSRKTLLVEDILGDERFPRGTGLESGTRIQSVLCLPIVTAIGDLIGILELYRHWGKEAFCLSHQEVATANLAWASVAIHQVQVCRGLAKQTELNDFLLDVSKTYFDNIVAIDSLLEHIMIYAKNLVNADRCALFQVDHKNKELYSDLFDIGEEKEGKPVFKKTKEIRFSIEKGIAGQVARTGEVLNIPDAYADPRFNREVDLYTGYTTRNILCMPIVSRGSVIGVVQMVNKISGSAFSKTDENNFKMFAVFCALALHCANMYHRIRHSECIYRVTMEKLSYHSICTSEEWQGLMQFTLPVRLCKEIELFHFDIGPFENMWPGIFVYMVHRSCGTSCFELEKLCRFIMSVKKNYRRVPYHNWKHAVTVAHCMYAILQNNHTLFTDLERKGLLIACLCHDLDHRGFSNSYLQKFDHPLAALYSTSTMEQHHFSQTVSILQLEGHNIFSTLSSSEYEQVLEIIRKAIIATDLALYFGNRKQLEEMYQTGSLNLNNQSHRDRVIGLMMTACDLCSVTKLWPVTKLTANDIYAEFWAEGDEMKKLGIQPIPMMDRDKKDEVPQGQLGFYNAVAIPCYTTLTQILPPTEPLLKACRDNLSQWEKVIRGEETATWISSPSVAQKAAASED

In order of falling pKi:
1. CCn1nc(OC[C@H]2C[C@@H]2c2ccc(OC)cn2)cc(NCc2nnc(C)s2)c1=O [Example 144, 2-ethyl-6-(((1S,2S)-2-(5-methoxypyridin-2-yl)cyclopropyl)methoxy)-4-((5-methyl-1,3,4-thiadiazol-2-yl)methylamino)pyridazin-3(2H)-one]  10.49
2. COc1ccc([C@H]2C[C@@H]2COc2cc(NCc3c[nH]nn3)c(=O)n(C)n2)nc1 [Example 146, 4-((1H-1,2,3-triazol-4-yl)methylamino)-6-(((1S,2S)-2-(5-methoxypyridin-2-yl)cyclopropyl)methoxy)-2-methylpyridazin-3(2H)-one]  10.32
3. COc1ccc([C@H]2C[C@@H]2COc2cc(NCc3cn(C)nn3)c(=O)n(C)n2)nc1 [Example 147, 6-(((1S,2S)-2-(5-methoxy-pyridin-2-yl)-cyclopropyl-)methoxy)-2-methyl-4-((1-methyl-1H-1,2,3-triazol-4-yl)methylamino)pyridazin-3(2H)-one]  10.18
4. COc1ccc([C@H]2C[C@@H]2COc2cc(NCc3cnn(C)n3)c(=O)n(C)n2)nc1 [Example 148, 6-(((1S,2S)-2-(5-methoxypyridin-2-yl)cyclopropyl)methoxy)-2-methyl-4-((2-methyl-2H-1,2,3-triazol-4-yl)methylamino)pyridazin-3(2H)-one]  9.19
5. C#CCN(Cc1ccc(OC)cc1)c1cc(OC[C@H]2C[C@@H]2c2ccc(OC)cn2)nn(C)c1=O [Example 145, 4-((4-methoxybenzyl)(prop-2-ynyl)amino)-6-(((1S,2S)-2-(5-methoxypyridin-2-yl)cyclopropyl)methoxy)-2-methylpyridazin-3(2H)-one]  8.10
6. COc1ccc(Cn2nc(OC[C@H]3C[C@@H]3c3ccc(OC)cn3)cc(NCc3nnc(C)s3)c2=O)cc1 [Example 142, 2-(4-methoxybenzyl)-6-(((1S,2S)-2-(5-methoxy-pyridin-2-yl)cyclopropyl-)methoxy)-4-((5-methyl-1,3,4-thiadiazol-2-yl)methyl-amino)pyridazin-3(2H)-one]  7.12
